Like-named read-outs stand apart in the source and are kept apart here.
Assays:
[1] = tested on: 3_S2m RNA; experiment: ligand-based 1H NMR (1D, CPMG, wLOGSY); assay type: binding, SARS-CoV-2
[2] = tested on: ORF7b RNA; experiment: ligand-based 1H NMR (1D, CPMG, wLOGSY); assay type: binding, SARS-CoV-2
[3] = tested on: SARS-CoV-2 USA-WA1/2020; experiment: microbe, parasite or virus in culture; assay type: cell-based; conditions: Severe acute respiratory syndrome coronavirus 2, 48 h; 293T-ACE2 cells, MOI 0.25, two days; read-out: SARS-CoV-2 EC50
[4] = tested on: 5_SL2+3 RNA; experiment: ligand-based 1H NMR (1D, CPMG, wLOGSY); assay type: binding, SARS-CoV-2
[5] = tested on: SCoV2 USA-WA1/2020; assay type: cell-based
[6] = in vitro; conditions: African green monkey, uninfected Vero E6 cells
[7] = tested on: 3_SL1+2 RNA; assay type: binding
[8] = tested on: 3_S2m RNA; experiment: RNA-based 1H NMR (TOCSY) titration; assay type: binding, SARS-CoV-2; conditions: RNA:ligand up to 1:4
Protocol: The RNA samples were previously diafiltrated into an aqueous solution containing 25 mM potassium phosphate (pH 6.2), 50 mM KCl and 0.1 mM EDTA, and the titration experiments were carried out at 27 °C using 50 μM RNA samples in 100% D2O. The 3_S2m titrations were duplicated at 25 °C using 120 μM RNA samples and additionally acquiring NOESY spectra (250 ms mixing time) at 1:0 and 1:4 ratios. For this system, the chemical shift perturbation analyses included 63 H1’, H2’, and aromatic 3_S2m resonances. The isolated 3_S2m hairpin was studied at two different temperatures (25 and 35 °C) using 120 and 500 μM RNA samples and similar TOCSY and NOESY (120 and 250 ms mixing times) experiments. […] The relaxation delay for NOESY and TOCSY acquisition was 2 and 1.5 s, respectively.

[9] = target: 3_S2m-23fl RNA hairpin; experiment: fluorescence intensity binding assay; parameters: species or system SARS-CoV-2; conditions: 0 mM NaCl, pH 6.6, 25 °C; read-out: Kd
Protocol: The 3_S2m-23fl RNA oligonucleotide used in fluorescence intensity experiments was purchased HPLC-purified from Integrated DNA Technologies (Coralville, IA, USA). […] The mixture of tRNAs from E. coli MRE 600 (identified as tRNA^mix) used to evaluate specificity was obtained from Roche (Basel, Switzerland).
3_S2m-23fl (at 100 nM concentration) was snap-cooled in a buffer containing sodium phosphate pH 6.6, 0 or 150 mM NaCl, and 0.1 mM EDTA and incubated with increasing amounts of compound. The specificity of the RNA–ligand interactions was evaluated by repeating the assays in the presence of a 100-fold molar excess (10 μM) of tRNA^mix. The equilibrium dissociation constants Kd were obtained by fitting the dose–response curves to a two-state binding model [41] with Prism software (GraphPad Software, San Diego, CA, USA). All fluorescence binding assays were carried out three times for each molecule and condition.

[10] = tested on: PRF RNA; experiment: ligand-based 1H NMR (1D, CPMG, wLOGSY); assay type: binding, SARS-CoV-2
[11] = average of aliphatic protons, RNA:ligand 1:100 (clomiphene) or 1:50 (trim, qz2)
[12] = average of aromatic protons, RNA:ligand 1:100 (clomiphene) or 1:50 (trim, qz2)

CC(C)CCN1CCC(CNc2nc3ccccc3c(=O)[nH]2)CC1 [qz2]
CPMG variation [1, 11]: -0.71%
LB [1, 11]: 1.30%
LOGSY factor [1, 11]: 3.15%
CPMG variation [1, 12]: 10.3%
LB [1, 12]: 6.50%
LOGSY factor [1, 12]: 11.1%
CPMG variation ([1]; qz2 peak A, RNA:ligand 1:50): 6.71%
LB ([1]; qz2 peak A, RNA:ligand 1:50): 4.87%
LOGSY factor ([1]; qz2 peak A, RNA:ligand 1:50): 1.60%
CPMG variation ([1]; qz2 peak C/D, RNA:ligand 1:50): -1.93%
LB ([1]; qz2 peak C/D, RNA:ligand 1:50): 2.61%
LOGSY factor ([1]; qz2 peak C/D, RNA:ligand 1:50): 3.32%
CPMG variation ([1]; qz2 peak E/B, RNA:ligand 1:50): -10.6%
LB ([1]; qz2 peak E/B, RNA:ligand 1:50): 11.4%
LOGSY factor ([1]; qz2 peak E/B, RNA:ligand 1:50): 6.11%
CPMG variation ([1]; qz2 peak F, RNA:ligand 1:50): 6.38%
LB ([1]; qz2 peak F, RNA:ligand 1:50): -12.7%
LOGSY factor ([1]; qz2 peak F, RNA:ligand 1:50): 2.81%
CPMG variation ([1]; qz2 peak G, RNA:ligand 1:50): -1.76%
LB ([1]; qz2 peak G, RNA:ligand 1:50): 4.32%
LOGSY factor ([1]; qz2 peak G, RNA:ligand 1:50): 1.92%
CPMG variation ([1]; qz2 peak I, RNA:ligand 1:50): 10.3%
LB ([1]; qz2 peak I, RNA:ligand 1:50): 11.5%
LOGSY factor ([1]; qz2 peak I, RNA:ligand 1:50): 5.19%
CPMG variation ([1]; qz2 peak J, RNA:ligand 1:50): 9.16%
LB ([1]; qz2 peak J, RNA:ligand 1:50): 11.3%
LOGSY factor ([1]; qz2 peak J, RNA:ligand 1:50): 9.42%
CPMG variation ([1]; qz2 peak K, RNA:ligand 1:50): 11.6%
LB ([1]; qz2 peak K, RNA:ligand 1:50): -3.23%
LOGSY factor ([1]; qz2 peak K, RNA:ligand 1:50): 18.7%
LB [2, 11]: -7.94%
LOGSY factor [2, 11]: 6.35%
CPMG variation [2, 12]: 50.7%
LB [2, 12]: 26.2%
LOGSY factor [2, 12]: 33.7%
CPMG variation ([2]; qz2 peak A, RNA:ligand 1:50): -33.2%
LB ([2]; qz2 peak A, RNA:ligand 1:50): -5.02%
LOGSY factor ([2]; qz2 peak A, RNA:ligand 1:50): 3.94%
CPMG variation ([2]; qz2 peak C/D, RNA:ligand 1:50): -34.1%
LB ([2]; qz2 peak C/D, RNA:ligand 1:50): -10.7%
LOGSY factor ([2]; qz2 peak C/D, RNA:ligand 1:50): 9.65%
CPMG variation ([2]; qz2 peak E/B, RNA:ligand 1:50): -16.1%
LB ([2]; qz2 peak E/B, RNA:ligand 1:50): -1.09%
LOGSY factor ([2]; qz2 peak E/B, RNA:ligand 1:50): 5.54%
CPMG variation ([2]; qz2 peak F, RNA:ligand 1:50): -4.16%
LB ([2]; qz2 peak F, RNA:ligand 1:50): -14.4%
LOGSY factor ([2]; qz2 peak F, RNA:ligand 1:50): 6.18%
CPMG variation ([2]; qz2 peak G, RNA:ligand 1:50): -19.2%
LB ([2]; qz2 peak G, RNA:ligand 1:50): -8.90%
LOGSY factor ([2]; qz2 peak G, RNA:ligand 1:50): 6.45%
CPMG variation ([2]; qz2 peak I, RNA:ligand 1:50): 48.3%
LB ([2]; qz2 peak I, RNA:ligand 1:50): 30.9%
LOGSY factor ([2]; qz2 peak I, RNA:ligand 1:50): 7.00%
CPMG variation ([2]; qz2 peak J, RNA:ligand 1:50): 45.5%
LB ([2]; qz2 peak J, RNA:ligand 1:50): 38.3%
LOGSY factor ([2]; qz2 peak J, RNA:ligand 1:50): 76.3%
CPMG variation ([2]; qz2 peak K, RNA:ligand 1:50): 58.5%
LB ([2]; qz2 peak K, RNA:ligand 1:50): 9.52%
LOGSY factor ([2]; qz2 peak K, RNA:ligand 1:50): 17.9%
EC50 [3]: 0.12 µM
CPMG variation [4, 11]: -3.85%
LB [4, 11]: -0.01%
LOGSY factor [4, 11]: 2.85%
CPMG variation [4, 12]: 4.67%
LB [4, 12]: 1.97%
LOGSY factor [4, 12]: 5.80%
CPMG variation ([4]; qz2 peak A, RNA:ligand 1:50): 3.62%
LB ([4]; qz2 peak A, RNA:ligand 1:50): 6.29%
LOGSY factor ([4]; qz2 peak A, RNA:ligand 1:50): 1.74%
CPMG variation ([4]; qz2 peak C/D, RNA:ligand 1:50): -2.36%
LB ([4]; qz2 peak C/D, RNA:ligand 1:50): -0.32%
LOGSY factor ([4]; qz2 peak C/D, RNA:ligand 1:50): 3.84%
CPMG variation ([4]; qz2 peak E/B, RNA:ligand 1:50): -11.8%
LB ([4]; qz2 peak E/B, RNA:ligand 1:50): 8.30%
LOGSY factor ([4]; qz2 peak E/B, RNA:ligand 1:50): 4.57%
CPMG variation ([4]; qz2 peak F, RNA:ligand 1:50): -1.52%
LB ([4]; qz2 peak F, RNA:ligand 1:50): -13.0%
LOGSY factor ([4]; qz2 peak F, RNA:ligand 1:50): 2.30%
CPMG variation ([4]; qz2 peak G, RNA:ligand 1:50): -3.33%
LB ([4]; qz2 peak G, RNA:ligand 1:50): 3.46%
LOGSY factor ([4]; qz2 peak G, RNA:ligand 1:50): 1.79%
CPMG variation ([4]; qz2 peak I, RNA:ligand 1:50): 4.89%
LB ([4]; qz2 peak I, RNA:ligand 1:50): 5.64%
LOGSY factor ([4]; qz2 peak I, RNA:ligand 1:50): 6.13%
CPMG variation ([4]; qz2 peak J, RNA:ligand 1:50): 5.88%
LB ([4]; qz2 peak J, RNA:ligand 1:50): -6.27%
LOGSY factor ([4]; qz2 peak J, RNA:ligand 1:50): 7.22%
CPMG variation ([4]; qz2 peak K, RNA:ligand 1:50): 3.01%
LB ([4]; qz2 peak K, RNA:ligand 1:50): 6.54%
LOGSY factor ([4]; qz2 peak K, RNA:ligand 1:50): 4.04%
nucleocapsid protein expression ([5]; 293T-ACE2, MOI 2, 8-h single cycle, added at +2 h relative to infection): strongly inhibited
time of addition with maximum inhibition ([5]; 293T-ACE2, MOI 2, relative to infection): -2 h
CC50 at 2 days [6]: > 20 µM
LB [7, 11]: -2.14%
LOGSY factor [7, 11]: 4.45%
CPMG variation [7, 12]: 10.7%
LB [7, 12]: 13.1%
LOGSY factor [7, 12]: 11.5%
CPMG variation ([7]; qz2 peak A, RNA:ligand 1:50): -13.7%
LB ([7]; qz2 peak A, RNA:ligand 1:50): -2.06%
LOGSY factor ([7]; qz2 peak A, RNA:ligand 1:50): 2.25%
CPMG variation ([7]; qz2 peak C/D, RNA:ligand 1:50): -16.2%
LB ([7]; qz2 peak C/D, RNA:ligand 1:50): -4.34%
LOGSY factor ([7]; qz2 peak C/D, RNA:ligand 1:50): 7.61%
CPMG variation ([7]; qz2 peak E/B, RNA:ligand 1:50): -19.5%
LB ([7]; qz2 peak E/B, RNA:ligand 1:50): 7.16%
LOGSY factor ([7]; qz2 peak E/B, RNA:ligand 1:50): 3.76%
CPMG variation ([7]; qz2 peak F, RNA:ligand 1:50): -4.16%
LB ([7]; qz2 peak F, RNA:ligand 1:50): -9.61%
LOGSY factor ([7]; qz2 peak F, RNA:ligand 1:50): 3.95%
CPMG variation ([7]; qz2 peak G, RNA:ligand 1:50): -11.4%
LB ([7]; qz2 peak G, RNA:ligand 1:50): -3.71%
LOGSY factor ([7]; qz2 peak G, RNA:ligand 1:50): 4.70%
CPMG variation ([7]; qz2 peak I, RNA:ligand 1:50): 11.7%
LB ([7]; qz2 peak I, RNA:ligand 1:50): 11.8%
LOGSY factor ([7]; qz2 peak I, RNA:ligand 1:50): 15.1%
CPMG variation ([7]; qz2 peak J, RNA:ligand 1:50): 11.1%
LB ([7]; qz2 peak J, RNA:ligand 1:50): 21.8%
LOGSY factor ([7]; qz2 peak J, RNA:ligand 1:50): 16.0%
CPMG variation ([7]; qz2 peak K, RNA:ligand 1:50): 8.91%
LB ([7]; qz2 peak K, RNA:ligand 1:50): 5.71%
LOGSY factor ([7]; qz2 peak K, RNA:ligand 1:50): 3.38%
RNA chemical shift perturbations [8]: smaller perturbations
Kd [9]: 26.7 µM
CPMG variation [10, 11]: -10.71%
LB [10, 11]: -3.21%
LOGSY factor [10, 11]: 3.74%
CPMG variation [10, 12]: 13.0%
LB [10, 12]: -0.27%
LOGSY factor [10, 12]: 22.5%
CPMG variation ([10]; qz2 peak A, RNA:ligand 1:50): -12.9%
LB ([10]; qz2 peak A, RNA:ligand 1:50): -3.66%
LOGSY factor ([10]; qz2 peak A, RNA:ligand 1:50): 3.10%
CPMG variation ([10]; qz2 peak C/D, RNA:ligand 1:50): -17.7%
LB ([10]; qz2 peak C/D, RNA:ligand 1:50): -8.83%
LOGSY factor ([10]; qz2 peak C/D, RNA:ligand 1:50): 7.49%
CPMG variation ([10]; qz2 peak E/B, RNA:ligand 1:50): -18.2%
LB ([10]; qz2 peak E/B, RNA:ligand 1:50): 3.04%
LOGSY factor ([10]; qz2 peak E/B, RNA:ligand 1:50): 2.11%
CPMG variation ([10]; qz2 peak F, RNA:ligand 1:50): -0.60%
LB ([10]; qz2 peak F, RNA:ligand 1:50): -8.91%
LOGSY factor ([10]; qz2 peak F, RNA:ligand 1:50): 3.69%
CPMG variation ([10]; qz2 peak G, RNA:ligand 1:50): -7.24%
LB ([10]; qz2 peak G, RNA:ligand 1:50): 1.78%
LOGSY factor ([10]; qz2 peak G, RNA:ligand 1:50): 2.32%
CPMG variation ([10]; qz2 peak I, RNA:ligand 1:50): 13.2%
LB ([10]; qz2 peak I, RNA:ligand 1:50): -0.20%
LOGSY factor ([10]; qz2 peak I, RNA:ligand 1:50): 13.3%
CPMG variation ([10]; qz2 peak J, RNA:ligand 1:50): 11.4%
LB ([10]; qz2 peak J, RNA:ligand 1:50): -1.72%
LOGSY factor ([10]; qz2 peak J, RNA:ligand 1:50): 42.7%
CPMG variation ([10]; qz2 peak K, RNA:ligand 1:50): 14.6%
LB ([10]; qz2 peak K, RNA:ligand 1:50): 1.11%
LOGSY factor ([10]; qz2 peak K, RNA:ligand 1:50): 11.4%

Reference: PMC9784969, “SARS-CoV-2 Inhibitors Identified by Phenotypic Analysis of a Collection of Viral RNA-Binding Molecules” (Pharmaceuticals, 2022)
